Measured values taken from patent US6040337A, “5-demethoxyfumagillol derivatives and processes for preparing the same” (priority 1998, dated 2000).
Converted amounts (≈) assume the structure as drawn. Read-outs that look alike come from different tables or passages of the source.

Experiments:
[1] = system: CPAE (Calf Pulmonary Artery Endothelial) cells; test: Inhibiting activity on angiogenesis (in vitro), CPAE cells, SRB method; format: cell-based; settings: Bos taurus, Endothelial cell, 96 h, read-out: IC50, CPAE
Method: (§1) Examination of the Inhibiting Activity on Angiogenesis (In Vitro)
(§2) The compound sample dissolved in DMSO was diluted to ten times by using MEM culture medium (in case of CPAE cells) without adding FBS (Fetal Bovine Serum) and RPMI 1640 culture (in case of EL-4 and P388D1 cells), and 20 of the solution was poured to each well of 96 well plate in triplicate for every concentration gradient. Then, each cell suspension was prepared and poured to examine the inhibiting activity on angiogenesis.
In case of CPAE (Calf Pulmonary Artery Endothelial) cells (used after 2-3 subcultures), a cell suspension having 7×10^3 cells/ml was prepared with MEM (+10% FBS+50 μg/ml ECGS) medium, and after pouring the suspension (180 μl) to each well of 96 well plate, they were cultured in a CO2 incubator (5% CO2, humidified) for 4 days.

[2] = system: EL-4 (Lymphoma, murine) cells; test: Inhibiting activity on angiogenesis (in vitro), EL-4 cells, MTT method; format: cell-based; settings: Mus musculus, EL4, 72 h, read-out: IC50, EL-4
Method: as §1, §2
In case of EL-4 (Lymphoma, murine) and P388D1 (leukemia, mouse) cells, a cell suspension having 1×10^4 cells/ml was prepared with RPMI1640 (+10% FBS) culture medium, and after pouring the suspension (180 μl) to each well of 96 well plate, they were cultured in a CO2 incubator (5% CO2, humidified) for 3 days.

[3] = EL-4 cells, 3 days culture, MTT method
[4] = CPAE cells, 4 days culture, SRB method

Row | Structure (SMILES) | IC50 [1] [ng/mL] | IC50 [2, 3] [ng/mL] | IC50 [2] [ng/mL] | IC50 [1, 4] [ng/mL]
1 | CC(C)=CC[C@H]1O[C@]1(C)[C@H]1C[C@H](OC(=O)OCc2ccccc2)CC[C@]12CO2 [Example 11, O-benzyloxycarbonyl-5-demethoxyfumagillol] | 0.012 (≈ 0.031 nM) | 0.041 (≈ 0.106 nM) | – | –
2 | CC(C)=CC[C@H]1O[C@]1(C)[C@H]1C[C@H](OC(=O)NC(=O)CCl)CC[C@]12CO2 [Example 5, 5-Demethoxy-6-O-chloroacetylcarbamoylfumagillol] | 0.28 (≈ 0.753 nM) | – | 0.52 (≈ 1.4 nM) | –
3 | CC(C)=CC[C@H]1O[C@]1(C)[C@H]1CC(=O)CC[C@]1(O)C[S+](C)C [Example 20, 2-(1,2-Epoxy-1,5-dimethyl-4-hexenyl)-1-dimethylsulfoniomethyl-4-oxo-1-cyclohexanol iodide] | – | 0.032 | – | 0.012
4 | CC(C)=CC[C@H]1O[C@]1(C)[C@H]1C[C@H](OC(=O)/C=C/c2ccc(Cl)cc2)CC[C@]12CO2 [Example 8, 5-Demethoxy-6-O-(4-chlorocinnamoyl)fumagillol] | – | 0.26 (≈ 0.624 nM) | – | 0.32 (≈ 0.767 nM)
5 | CC(C)=CC[C@H]1O[C@]1(C)[C@H]1C[C@H](OC(=O)NC(=O)CCl)CC[C@]1(O)CCl [Example 9, 4-O-chloroacetylcarbamoyl-l-chloromethyl-l-cyclohexanol] | – | 0.43 (≈ 1.05 nM) | – | 0.36 (≈ 0.882 nM)
6 | CC(C)=CC[C@H]1O[C@]1(C)[C@H]1CC(NC(=O)/C=C/c2ccc(N(C)C)cc2)CC[C@]12CO2 (stereo partly shown) [Example 14, 6-(4-Dimethylaminocinnamoyl)amino-5-demethoxy-6-deoxyfumagillol] | – | 0.41 (≈ 0.966 nM) | – | 0.19 (≈ 0.447 nM)
7 | CO[C@@H]1[C@H](OC(=O)/C=C/C=C/C=C/C=C/C(=O)O)CC[C@]2(CO2)[C@H]1[C@@]1(C)O[C@@H]1CC=C(C)C [Fumagillin, reference compound] | 3.2 (≈ 6.98 nM) | – | 1.6 (≈ 3.49 nM) | –
8 | CC(C)=CC[C@H]1O[C@]1(C)[C@H]1CC(=O)CC[C@]1(O)CCl [Example 4, 3-Chloromethyl-5-demethoxy-3-hydroxy-6-oxo-6-deoxyfumagillol] | – | 0.46 (≈ 1.6 nM) | – | 0.57 (≈ 1.99 nM)
9 | COc1cc(/C=C/C(=O)O[C@@H]2CC[C@]3(CO3)[C@@H]([C@@]3(C)O[C@@H]3CC=C(C)C)C2)cc(OC)c1OC [Example 7, 5-Demethoxy-6-O-(3,4,5-trimethoxy)cinnamoyl fumagillol] | – | 0.066 (≈ 0.14 nM) | – | 0.042 (≈ 0.0889 nM)
10 | COc1ccc(CCC(=O)O[C@@H]2CC[C@]3(CO3)[C@@H]([C@@]3(C)O[C@@H]3CC=C(C)C)C2)cc1 [Example 10, 5-Demethoxy-6-O-[3-(4-methoxyphenyl)propionyl] fumagillol] | – | 0.82 (≈ 1.98 nM) | – | 0.46 (≈ 1.11 nM)
11 | CC(C)=CC[C@H]1O[C@]1(C)[C@H]1C[C@H](OC(=O)/C=C/C=C/C=C/C=C/C(=O)O)CC[C@]12CO2 [5-Demethoxy fumagillin, 5-demethoxyfumagillin, reference compound] | – | 21 (≈ 49 nM) | – | 28 (≈ 65.3 nM)
